Laboratory results taken from patent publication US20230128304A1, “BENZIMIDAZOLE COMPOUND FOR THE TREATMENT OF METABOLIC DISORDERS” (ACHÉ LABORATÓRIOS FARMACÊUTICOS S.A., priority 2020, published 2023).

Experiments:
[1] = molecular target: MT1 receptor (Homo sapiens, UniProt P48039); assay: cell-based; settings: read-out: MT1 agonism I.A. (intrinsic activity)
[2] = test system: SD rats maintained on a high fat diet (HFD); assay: Liver histopathology (NAFLD activity score) in HFD model; type: in vivo, Sprague Dawley (SD) rats
Procedure: (§1) The parameters were assessed following a chronic oral treatment with compound I at 10 and 30 mg/kg, dapagliflozin at 5 mg/kg, or vehicle to animals receiving HFD. Vehicle was also administered to animals receiving normal chow. The liver triglycerides were quantified using Cobas C111 clinical analyzer TRIGL 04657594 190. Glycogen quantification in liver samples was performed using commercial kits (Thermo BioVision, Glycogen Assay Kit, K646-100). Data is shown as means±SEM (A-D) or raw data including mean±SEM (E-H), n=9-10. The statistical analysis of liver triglycerides (A-B) and glycogen (C-D) was performed by general linear model of log transformed data (triglycerides only) with treatment and cohort as factors and termination order and BW on day 1 as covariates. Treatment groups were compared with HFD Vehicle by separate Williams' tests (compound I) or multiple t tests (dapagliflozin) and statistically significant differences are denoted by * (p<0.05), ** (p<0.01) and *** (p<0.001). Comparisons against Chow Vehicle were performed by multiple t tests (HFD Vehicle and dapagliflozin groups) or Dunnett's test (compound I) and statistically significant differences are denoted by † (p<0.05), †† (p<0.01) and ††† (p<0.001). Analysis of liver histopathology data (E-H) was done by exact Wilcoxon rank sum test. Statistical differences are denoted by * (p<0.05) in comparison with HFD Vehicle and by † (p<0.05), †† (p<0.01) and ††† (p<0.001) when compared with Chow Vehicle.
(§2) In the HFD model, animals were initially maintained on a HFD for 4 weeks to induce a significant body weight (BW) gain before treatment was initiated. […] Two vehicle-treated control groups, fed either normal chow (Chow Vehicle) or HFD (HFD Vehicle), were also included.
Liver was also assessed for NAFLD by histopathological analysis (FIGS. 3E-H). Samples were sectioned, stained and scored following a method previously described (Kleiner D E et al. (2005). Design and validation of a histological scoring system for nonalcoholic fatty liver disease. Hepatology. 41(6):1313-21; Nishida T et al. (2013). Spontaneous onset of nonalcoholic steatohepatitis and hepatocellular carcinoma in a mouse model of metabolic syndrome. Lab Invest. 93(2):230-41). The parameters analyzed were: steatosis (0-3), lobular inflammation (0-3) and hepatocellular ballooning (0-2). The total “NAFLD activity score” (NAS) score was calculated as the sum of all parameters (0-8). The liver of Chow Vehicle animals had no pathology scores (zero) for steatosis, lobular inflammation, hepatocellular ballooning and no score for total NAS.

[3] = test system: SD rats maintained on a high fat diet (HFD); assay: Body composition (FoodScan near-infrared analyzer) in HFD model; type: in vivo, Sprague Dawley (SD) rats; settings: for Fat / Final carcass weight / Protein / Water: adjusted means ± SEM; for Body composition parameters (water, protein, fat content, final carcass weight) against HFD Vehicle: 10 and 30 mg/kg
Procedure: as §2
The effects on body composition and on the weight of selected tissues (brown fat pad, epididymal fat pad, liver or gastrocnemius muscle) were assessed after the study was terminated (days 65/66). The weights of tissues were analyzed in two ways: i) BW on day 1 was used as a covariate to correct for differences in the BW at the start of the study or ii) the terminal BW (days 65/66) was used as a covariate to correct for changes due to weight loss (Table 3). […] Body composition was determined using FoodScan™ near-infrared analyzer analysis, which assessed water, protein and fat content and the final carcass weight (Table 4).

[4] = test system: SD rats maintained on a high fat diet (HFD); assay: Weight of selected tissues in HFD model; type: in vivo, Sprague Dawley (SD) rats
Procedure: In the HFD model, animals were initially maintained on a HFD for 4 weeks to induce a significant body weight (BW) gain before treatment was initiated. […] Two vehicle-treated control groups, fed either normal chow (Chow Vehicle) or HFD (HFD Vehicle), were also included. The effects on body composition and on the weight of selected tissues (brown fat pad, epididymal fat pad, liver or gastrocnemius muscle) were assessed after the study was terminated (days 65/66). […] Body composition was determined using FoodScan™ near-infrared analyzer analysis, which assessed water, protein and fat content and the final carcass weight (Table 4).

[5] = test system: SD rats maintained on a high fat diet (HFD); assay: Body weight and food intake in HFD diet-induced obesity model; type: in vivo, Sprague Dawley (SD) rats; settings: for Daily food intake compared with HFD Vehicle: compound II apart from isolated changes
Procedure: The benzimidazole compound of formula I, the comparative compound of formula II, and dapagliflozin were administered to animals fed HFD. Vehicle was administered to animals fed normal chow or HFD. Data is shown as adjusted means—SEM of n=9-10 animals (BW and BW gain) or n=5 cages (FI and average daily FI) per group. Data was analyzed by ANCOVA with BW on day 1 (A and C) or average FI during the baseline period (B and D) as covariate, excluding the Chow Vehicle group. Treatment groups were compared with HFD Vehicle by separate Williams' tests (compounds I or II) or multiple t tests (dapagliflozin) and considered statistically significant if p<0.05. Statistical significance is denoted as “a”, “b”, “c”, “d” and “e” for HFD groups treated respectively with dapagliflozin, compound II at 10 mg/kg, compound II at 30 mg/kg, compound I at 10 mg/kg and compound I at 30 mg/kg. # (p=0.051) and & (p=0.098) mean trends toward significance in comparisons with HFD Vehicle.
J Endocrinol. 234(3):255-267; Devenny J J et al. (2012). Weight loss induced by chronic dapagliflozin treatment is attenuated by compensatory hyperphagia in diet-induced obese (DIO) rats. Obesity. 20: 1645-1652.).
as §2

[6] = test system: SD rats maintained on a high fat diet (HFD); assay: Plasma glucose, insulin and HOMA-IR in HFD model; type: in vivo, Sprague Dawley (SD) rats
Procedure: as §2, with “Vehicle was administered to animals fed normal chow or HFD. The parameters were assessed on day 51. […] In” for “In”

[7] = test system: SD rats maintained on a high fat diet (HFD); assay: Liver triglycerides and glycogen in HFD model; type: in vivo, Sprague Dawley (SD) rats; settings: 5 mg/kg
Procedure: as §1, with “Comparisons against Chow Vehicle were performed by multiple t tests (HFD Vehicle and dapagliflozin groups) or Dunnett's test (compound I) and statistically significant differences are denoted by † (p<0.05), †† (p<0.01) and ††† (p<0.001). Analysis of liver histopathology data (E-H) was done by exact Wilcoxon rank sum test. Statistical differences are denoted by * (p<0.05) in comparison with HFD Vehicle and by † (p<0.05), †† (p<0.01) and ††† (p<0.001) when compared with Chow Vehicle.” left out
As only the benzimidazole derivative of formula I according to the present invention, but not the comparative benzimidazole compound II, impacted BW gain, liver weight, plasma glucose levels and HOMA-IR in the HFD model, specific effects of compound I in the liver of the animals were evaluated in comparison with dapagliflozin and control groups. […]

[8] = 10 mg/kg, data adjusted for BW on day 1, mean ± SEM, in g (unit assumed)
[9] = 10 mg/kg, data adjusted for BW on day 65/66, mean ± SEM, in g (unit assumed)
[10] = 30 mg/kg, data adjusted for BW on day 1, mean ± SEM, in g (unit assumed)
[11] = 30 mg/kg, data adjusted for BW on day 65/66, mean ± SEM, in g (unit assumed)
[12] = 5 mg/kg p.o., day 51 after 4-hour fast, p<0.001
[13] = 5 mg/kg, data adjusted for BW on day 1, mean ± SEM, in g (unit assumed)
[14] = 5 mg/kg, data adjusted for BW on day 65/66, mean ± SEM, in g (unit assumed)

Sequence of MT1 receptor (P48039 whole entry): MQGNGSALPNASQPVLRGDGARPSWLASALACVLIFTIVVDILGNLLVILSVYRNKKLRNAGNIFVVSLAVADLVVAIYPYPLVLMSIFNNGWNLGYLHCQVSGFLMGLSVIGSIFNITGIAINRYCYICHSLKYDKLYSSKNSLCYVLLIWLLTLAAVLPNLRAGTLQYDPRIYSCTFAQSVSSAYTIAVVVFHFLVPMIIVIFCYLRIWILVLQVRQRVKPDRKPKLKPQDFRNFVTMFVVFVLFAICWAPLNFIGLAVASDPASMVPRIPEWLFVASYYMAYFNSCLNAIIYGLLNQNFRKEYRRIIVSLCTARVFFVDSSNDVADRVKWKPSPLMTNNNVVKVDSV

COc1ccc2[nH]cc(CCNC(C)=O)c2c1 [Melatonin, N-acetyl-5-methoxytryptamine]
Emax [1]: 100%

COc1cc2c(cc1Cl)nc(OC)n2CCNC(C)=O [Compound of formula I, N-[2-(5-Chloro-2,6-dimethoxy-benzoimidazol-1-yl)-ethyl]-acetamide]
Steatosis score change compared to the HFD group ([2]; 30 mg/kg p.o., p<0.05): −57%
Total NAS value versus HFD Vehicle ([2]; 30 mg/kg, p=0.126): trend toward significance
Lobular inflammation score ([2]; 30 mg/kg, no longer significantly different from the Chow Vehicle control): reduced
Fat ([3]; 10 mg/kg): 20.5 ± 1.5 %
Final carcass weight ([3]; 10 mg/kg): 561.7 ± 13.0^ g
Protein ([3]; 10 mg/kg): 19.7 ± 0.4%
Water ([3]; 10 mg/kg): 56.1 ± 1.2 %
Fat ([3]; 30 mg/kg): 20.0 ± 1.7 %
Final carcass weight ([3]; 30 mg/kg): 584.0 ± 13.6^ g
Protein ([3]; 30 mg/kg): 19.6 ± 0.5 %
Water ([3]; 30 mg/kg): 56.5 ± 1.4 %
Body composition parameters (water, protein, fat content, final carcass weight) against HFD Vehicle [3]: No effect
Liver weight ([4]; 10 mg/kg, data adjusted for BW on day 1, mean ± SEM): 17.7 ± 0.8
Brown adipose tissue weight [4, 8]: 0.700 ± 0.091
Epididymal fat pads weight [4, 8]: 13.1 ± 1.5
Gastrocnemius weight [4, 8]: 3.30 ± 0.14
Brown adipose tissue weight [4, 9]: 0.719 ± 0.084
Epididymal fat pads weight [4, 9]: 13.9 ± 1.1
Gastrocnemius weight [4, 9]: 3.32 ± 0.15
Liver weight [4, 9]: 18.5 ± 0.5
Liver weight ([4]; 30 mg/kg, data adjusted for BW on day 1, mean ± SEM): 18.6 ± 0.9
Brown adipose tissue weight [4, 10]: 0.801 ± 0.066
Epididymal fat pads weight [4, 10]: 13.9 ± 1.0
Gastrocnemius weight [4, 10]: 3.35 ± 0.10
Brown adipose tissue weight [4, 11]: 0.808 ± 0.062
Epididymal fat pads weight [4, 11]: 14.2 ± 1.2
Gastrocnemius weight [4, 11]: 3.36 ± 0.10
Liver weight [4, 11]: 18.9 ± 0.5
Liver weight compared to HFD Vehicle (in words) ([4]; both groups (10 and 30 mg/kg), corrected by the initial BW, p=0.12): trend toward liver weight reduction
Body weight (BW) compared with HFD Vehicle ([5]; 10 and 30 mg/kg p.o., days 13 to 32, p<0.05): significantly reduced body weight (BW)
BW gain from day 1 to 57 compared with HFD Vehicle ([5]; 10 and 30 mg/kg p.o., p=0.098): trend towards reduced BW gain
Daily food intake compared with HFD Vehicle ([5]; 10 and 30 mg/kg): did not affect

CCOc1ccc(Cc2cc([C@@H]3O[C@H](CO)[C@@H](O)[C@H](O)[C@H]3O)ccc2Cl)cc1 [Dapagliflozin]
HOMA-IR change compared to HFD Vehicle [6, 12]: −66.7%
Plasma glucose change compared to HFD Vehicle [6, 12]: −21.6%
Plasma insulin change compared to HFD Vehicle [6, 12]: −56.7%
Histopathology parameters (steatosis, lobular inflammation, hepatocellular ballooning, NAS) versus HFD Vehicle ([2]; 5 mg/kg): no effect
Fat ([3]; 5 mg/kg): 16.8 ± 1.3^ %
Final carcass weight ([3]; 5 mg/kg): 564.5 ± 9.4 g
Protein ([3]; 5 mg/kg): 20.6 ± 0.4%
Water ([3]; 5 mg/kg): 58.9 ± 1.0^ %
Brown adipose tissue weight [4, 13]: 0.679 ± 0.047
Epididymal fat pads weight [4, 13]: 12.2 ± 0.7
Gastrocnemius weight [4, 13]: 3.34 ± 0.09
Liver weight [4, 13]: 20.9 ± 0.5
Liver weight ([4]; 5 mg/kg, data adjusted for BW on day 65/66, mean ± SEM): 21.6 ± 0.3
Brown adipose tissue weight [4, 14]: 0.697 ± 0.050
Epididymal fat pads weight [4, 14]: 13.0 ± 0.7
Gastrocnemius weight [4, 14]: 3.37 ± 0.09
Liver weight change compared to HFD Vehicle ([4]; 5 mg/kg, data corrected for the terminal BW, p<0.01): +10.8%
Liver glycogen concentration compared to HFD Vehicle (in words) [7]: No effect
Liver glycogen content compared to HFD Vehicle (in words) [7]: No effect

CCOc1nc2cc(Cl)c(OC)cc2n1CCCNC(C)=O [Compound of formula II, N-[3-(5-Chloro-2-ethoxy-6-methoxy-benzoimidazol-1-yl)-propyl]-acetamide]
HOMA-IR compared to HFD Vehicle (in words) ([6]; 10 and 30 mg/kg, day 51): did not alter
Plasma glucose compared to HFD Vehicle (in words) ([6]; 10 and 30 mg/kg, day 51): did not alter
Plasma insulin compared to HFD Vehicle (in words) ([6]; 10 and 30 mg/kg, day 51): did not alter
Fat ([3]; 10 mg/kg): 20.8 ± 2.3 %
Final carcass weight ([3]; 10 mg/kg): 587.6 ± 6.3 g
Protein ([3]; 10 mg/kg): 19.2 ± 0.6 %
Water ([3]; 10 mg/kg): 56.0 ± 1.8 %
Fat ([3]; 30 mg/kg): 17.9 ± 2.3 %
Final carcass weight ([3]; 30 mg/kg): 593.3 ± 11.4 g
Protein ([3]; 30 mg/kg): 19.8 ± 0.5%
Water ([3]; 30 mg/kg): 58.4 ± 1.9^ %
Body composition parameters (water, protein, fat content, final carcass weight) against HFD Vehicle [3]: No effect
Daily BW gain ([5]; 10 and 30 mg/kg): no significant effects
Daily food intake compared with HFD Vehicle ([5]; 10 and 30 mg/kg): did not affect
